From ChEMBL document CHEMBL1144769 (J Med Chem, 2008) come the findings set out here.

Each structure is given as a SMILES string. Activity calls are given as the source filed them. No cut-off for these calls is given here.

For data set [1], the target named is T1, Prostaglandin G/H synthase 1 (Homo sapiens, UniProt P23219). In words: Inhibition of COX1.
The target of data set [2] is T2, Prostaglandin G/H synthase 2 (Homo sapiens, UniProt P35354).
T2 sequence (P35354 whole entry): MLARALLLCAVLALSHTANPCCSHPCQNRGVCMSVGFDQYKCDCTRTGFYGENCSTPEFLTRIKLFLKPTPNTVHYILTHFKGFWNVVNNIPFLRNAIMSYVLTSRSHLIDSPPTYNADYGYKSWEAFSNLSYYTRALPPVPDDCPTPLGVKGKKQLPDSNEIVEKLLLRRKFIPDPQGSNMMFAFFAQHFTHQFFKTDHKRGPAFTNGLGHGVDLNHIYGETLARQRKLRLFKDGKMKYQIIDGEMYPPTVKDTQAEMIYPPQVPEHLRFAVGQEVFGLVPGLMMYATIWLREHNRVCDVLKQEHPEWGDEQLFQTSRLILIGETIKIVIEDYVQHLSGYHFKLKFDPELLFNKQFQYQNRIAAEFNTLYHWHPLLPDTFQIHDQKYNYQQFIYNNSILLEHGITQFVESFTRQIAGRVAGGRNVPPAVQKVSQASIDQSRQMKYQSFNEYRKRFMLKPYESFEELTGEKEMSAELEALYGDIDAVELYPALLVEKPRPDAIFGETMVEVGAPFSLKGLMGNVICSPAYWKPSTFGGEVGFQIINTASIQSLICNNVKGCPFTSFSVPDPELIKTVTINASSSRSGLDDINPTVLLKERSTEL
In words: Inhibition of COX2.

For data set [3], the target named is T1, Prostaglandin G/H synthase 1. In words: Inhibition of COX1 at 100 uM.
For data set [4], the system named is Mus musculus. In words: Analgesic activity in ICR mouse assessed as reduction in number of acetic acid-induced writhing at 10 mg/kg, po after 10 mins. Format: functional, organism-based. Also on record: dose 10 mg/kg. For orientation: Writhing tests count abdominal constrictions after an irritant is injected.
Data set [5] deals with Mus musculus. Put plainly: Acute toxicity in ICR mouse upto 300 mg/kg, po upto 14 days. Format: organism-based. Also on record: dose 300 mg/kg, route oral. As to conditions: in vivo, 336 h.
Data set [6] is described as follows: Cmax in Sprague-Dawley rat at 30 mg/kg, po. Format: ADME, organism-based. More on the design: dose 30 mg/kg, route oral. Particulars: in vivo.
For data set [7], the system named is Rattus norvegicus. In words: Analgesic activity in Sprague-Dawley rat assessed as reduction in formalin-induced pain at 30 mg/kg, po. More on the design: dose 30 mg/kg. Format: functional, organism-based.
The test system of data set [8] is Mus musculus. Put plainly: Analgesic activity in ICR mouse assessed as reduction in number of acetic acid-induced writhing at 30 mg/kg, po after 10 mins. Format: functional, organism-based. Also on record: dose 30 mg/kg.
The test system of data set [9] is Rattus norvegicus. In words: Induction of gastric ulcer formation in Sprague-Dawley rat at 30 mg/kg, po administered daily for 1 week. Format: organism-based, Stomach. More on the design: dose 30 mg/kg, route oral. Particulars: in vivo, 168 h.
The test system of data set [10] is Rattus norvegicus. In words: Induction of gastric ulcer formation in Sprague-Dawley rat at 30 mg/kg, po after 5 hrs. Format: organism-based, Stomach. More on the design: dose 30 mg/kg, route oral. As to conditions: in vivo.
The test system of data set [11] is Rattus norvegicus. In words: Induction of gastric ulcer formation in Sprague-Dawley rat at 10 mg/kg, po after 5 hrs. Format: organism-based, Stomach. More on the design: dose 10 mg/kg, route oral. Particulars: in vivo.

In general, IC50 refers to the concentration that gives 50% inhibition. As usually defined, the inhibition is the percentage by which the read-out fell short of the control. The Cmax is the highest concentration seen after dosing.

T1 sequence (P23219 whole entry): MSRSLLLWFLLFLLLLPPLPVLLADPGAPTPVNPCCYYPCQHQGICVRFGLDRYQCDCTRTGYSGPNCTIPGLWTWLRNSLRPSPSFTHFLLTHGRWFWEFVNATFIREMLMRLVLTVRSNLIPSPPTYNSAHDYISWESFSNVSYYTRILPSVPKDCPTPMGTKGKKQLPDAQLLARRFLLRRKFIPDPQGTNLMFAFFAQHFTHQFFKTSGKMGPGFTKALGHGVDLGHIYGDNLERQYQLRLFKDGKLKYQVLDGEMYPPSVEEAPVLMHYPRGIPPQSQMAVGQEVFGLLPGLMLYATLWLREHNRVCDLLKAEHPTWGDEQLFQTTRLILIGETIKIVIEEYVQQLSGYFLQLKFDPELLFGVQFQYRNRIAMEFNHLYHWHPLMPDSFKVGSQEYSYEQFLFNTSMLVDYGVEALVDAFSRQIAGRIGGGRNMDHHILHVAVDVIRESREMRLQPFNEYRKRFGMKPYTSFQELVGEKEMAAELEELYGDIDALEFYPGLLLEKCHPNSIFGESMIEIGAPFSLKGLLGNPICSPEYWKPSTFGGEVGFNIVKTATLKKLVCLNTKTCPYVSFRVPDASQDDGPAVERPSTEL

Regarding `Nc1ccc(NC(=O)c2cccc(C(F)(F)F)c2)cc1`, the IC50 in data set [1] is 62 µM; in [2], greater than 100 µM.
For `Nc1cccnc1NC(=O)c1cccc(C(F)(F)F)c1`, in that order: greater than 100 µM and greater than 100 µM.
On to `Cc1ccc(NC(=O)c2ccccc2N)cc1`, for which the inhibition in data set [3] stood at 57%.
In turn, `Nc1ccc(C(=O)Nc2ccccc2)cc1` displayed an inhibition in data set [3] of 40%.
Same read-out and setting: under `Cc1ccc(C(=O)Nc2ccc(N)cc2)cc1` stands 53%.
With `Nc1ccc(NC(=O)c2cccc(C(F)(F)F)c2)nc1`, the IC50 was 12 µM in data set [1] and greater than 100 µM in data set [2].
In the case of `Nc1ccc(NC(=O)c2ccc(C(F)(F)F)cc2)nc1`, the result in the data set on Mus musculus [4], with Rattus norvegicus [7] and in the data set on Mus musculus [8] was Active. For the same molecule, the Activity entry in the data set with Mus musculus [5] was “Non-toxic”; in the data set with Rattus norvegicus [9], “Not Active”. The molecule also displayed a Cmax in data set [6] of 12 µM. In addition, the IC50 in data set [1] was determined as 0.8 µM; in data set [2] it was 210 µM.
On to `Nc1cccc(C(=O)Nc2ccc(C(F)(F)F)cc2)c1`, for which the 50% inhibitory concentration (IC50) in data set [1] was 19 µM; in data set [2], greater than 100 µM. In [3], this molecule yielded an inhibition of 70%.
Turning to `Nc1ccccc1C(=O)Nc1ccccc1`, the inhibition in [3] is 64%.
Consider `Nc1ccccc1NC(=O)c1ccc(C(F)(F)F)cc1`, for which the figures for the IC50 in data set [1] and in [2] were 88 µM and greater than 100 µM, respectively. The molecule also gave an inhibition in data set [3] of 53%.
In data set [3], `CCN(C(=O)c1ccccc1N)c1ccccc1` came in with an inhibition of 5%.
In the case of `Nc1ccccc1C(=O)Nc1ccccc1C(F)(F)F`, the IC50 in data set [1] and in [2] was greater than 100 µM each time. Moreover, the inhibition in data set [3] came out at 32%.
Regarding `Nc1ccccc1NC(=O)c1cccc(C(F)(F)F)c1`, the IC50 in [1] is 72 µM; in data set [2], greater than 100 µM.
As for `CC(=O)Oc1ccccc1C(=O)O` [ASPIRIN], in the data set with Rattus norvegicus [10], the outcome was Active.
As to `Nc1ccc(C(=O)Nc2cccc(C(F)(F)F)c2)cc1`, the IC50 in data set [1] and in data set [2] was greater than 100 µM throughout.
Regarding `CCN(C(=O)c1ccccc1N)c1ccc(Cl)cc1`, the inhibition in data set [3] worked out at 23%.
Molecule `Cc1ccccc1NC(=O)c1ccccc1N` gave an inhibition in [3] of 53%.
With `COc1ccc(-c2nc(C(=O)N3CCN(C)CC3)sc2-c2ccc(OC)cc2)cc1` [FR-122047], the IC50 was found to be 0.028 µM in data set [1] and 65 µM in data set [2].
As to `COc1ccc2c(c1)c(CC(=O)O)c(C)n2C(=O)c1ccc(Cl)cc1` [INDOMETHACIN], the outcome in the data set with Mus musculus [4] was Active. In addition, the outcome in the data set on Rattus norvegicus [11] was Active.
With `Nc1ccc(NC(=O)c2ccccc2)cc1`, in [3], the inhibition amounted to 54%.
Turning to `Nc1ccc(C(=O)Nc2ccccc2C(F)(F)F)cc1`, the IC50 in [1] and in [2] was greater than 100 µM each time.
For the molecule `Nc1ccc(C(=O)Nc2ccc(C(F)(F)F)cc2)nc1`, the IC50 in data set [1] and in data set [2] was greater than 100 µM in each case.
In the case of `Nc1ccc(NC(=O)c2ccc(C(F)(F)F)cc2)cc1`, the IC50 in [1] is 29 µM; in [2], greater than 100 µM. In data set [3], this molecule returned an inhibition of 63%.
Turning to `O=C(Nc1ccc(C(F)(F)F)cc1)c1ccc([N+](=O)[O-])cc1`, in [3], the inhibition is 0%.
On the same count and under the same terms, under `Nc1ccc(NC(=O)c2ccc(Cl)cc2)cc1` stands 49%; under `Nc1ccc(C(=O)Nc2ccc(Cl)cc2)cc1`, 53%.
For `Nc1ccccc1C(=O)Nc1cccc(C(F)(F)F)c1`, the half-maximal inhibitory concentration (IC50) in data set [1] is 10 µM; in [2] it was greater than 100 µM. In data set [3], this molecule gave an inhibition of 90%.
In data set [3], `Cc1ccc(NC(=O)c2ccc(Cl)cc2)cc1` registered an inhibition of 23%.
In the case of `Nc1cccc(NC(=O)c2ccccc2C(F)(F)F)c1`, the values for the IC50 in data set [1] and in data set [2] were 94 µM and greater than 100 µM, respectively.
In the case of `Nc1cccc(NC(=O)c2ccc(C(F)(F)F)cc2)c1`, the results for the IC50 in data set [1] and in data set [2] were 14 µM and greater than 100 µM, respectively. The molecule also came in with an inhibition in data set [3] of 76%.
`Cc1cccc(NC(=O)c2ccccc2N)c1` came in with an inhibition in data set [3] of 67%.
Turning to `Nc1ccnc(NC(=O)c2cccc(C(F)(F)F)c2)c1`, the IC50 in [1] and in [2] was greater than 100 µM throughout.
As to `Nc1cccc(C(=O)Nc2cccc(C(F)(F)F)c2)c1`, the IC50 in data set [1] and in [2] was greater than 100 µM in each case.
`Nc1ccccc1C(=O)Nc1ccc(Cl)cc1` displayed an inhibition in data set [3] of 52%.
Regarding `Nc1ccccc1NC(=O)c1ccccc1C(F)(F)F`, the IC50 in data set [1] and in data set [2] was greater than 100 µM in each case.
Consider `Nc1ccc(NC(=O)c2ccccc2C(F)(F)F)cc1`, for which the IC50 in data set [1] and in data set [2] was greater than 100 µM each time.
`Cc1ccc(NC(=O)c2ccc(N)cc2)cc1` came in with an inhibition in [3] of 56%.
As for `Nc1ccc(C(=O)Nc2ccc(C(F)(F)F)cn2)cc1`, the IC50 was 10 µM in data set [1] and greater than 100 µM in data set [2].
As for `Nc1ccc(C(=O)Nc2ccc(C(F)(F)F)cc2)cc1`, the IC50 was 30 µM in [1] and greater than 100 µM in [2]. The same molecule registered an inhibition in data set [3] of 71%.
Take `Nc1cccc(NC(=O)c2cccc(C(F)(F)F)c2)c1`: the IC50 in data set [1] is 7.2 µM; in data set [2], greater than 100 µM.
For `Nc1ccnc(NC(=O)c2ccc(C(F)(F)F)cc2)c1`, in that order: greater than 100 µM and greater than 100 µM.
As for `COc1ccc(NC(=O)c2ccc(Cl)cc2)cc1`, the inhibition in [3] came to 35%.
Turning to `Nc1cccnc1NC(=O)c1ccc(C(F)(F)F)cc1`, the IC50 in [1] and in [2] was greater than 100 µM throughout.
In data set [3], `O=C(Nc1ccc(C(F)(F)F)cc1)c1ccccc1[N+](=O)[O-]` showed an inhibition of 31%.
For the molecule `Nc1cccc(C(=O)Nc2ccccc2C(F)(F)F)c1`, the IC50 in [1] and in data set [2] was greater than 100 µM each time.
For `O=C(Nc1ccc(C(F)(F)F)cc1)c1cccc([N+](=O)[O-])c1`, the inhibition in [3] came to 13%.
For `Nc1ccccc1C(=O)Nc1ccc(C(F)(F)F)cc1`, the IC50 in [1] is 16 µM; in data set [2], greater than 100 µM. The inhibition in data set [3] worked out at 68%.
